Laboratory results: BindingDB's records for doi:10.7270/Q2WH2TT9 (D3R/Abbott, 2020)

target: Angiopoietin-1 receptor (Homo sapiens, UniProt Q02763); test: D3R2025
Description: D3R2025

Angiopoietin-1 receptor, sequence (Q02763 whole entry): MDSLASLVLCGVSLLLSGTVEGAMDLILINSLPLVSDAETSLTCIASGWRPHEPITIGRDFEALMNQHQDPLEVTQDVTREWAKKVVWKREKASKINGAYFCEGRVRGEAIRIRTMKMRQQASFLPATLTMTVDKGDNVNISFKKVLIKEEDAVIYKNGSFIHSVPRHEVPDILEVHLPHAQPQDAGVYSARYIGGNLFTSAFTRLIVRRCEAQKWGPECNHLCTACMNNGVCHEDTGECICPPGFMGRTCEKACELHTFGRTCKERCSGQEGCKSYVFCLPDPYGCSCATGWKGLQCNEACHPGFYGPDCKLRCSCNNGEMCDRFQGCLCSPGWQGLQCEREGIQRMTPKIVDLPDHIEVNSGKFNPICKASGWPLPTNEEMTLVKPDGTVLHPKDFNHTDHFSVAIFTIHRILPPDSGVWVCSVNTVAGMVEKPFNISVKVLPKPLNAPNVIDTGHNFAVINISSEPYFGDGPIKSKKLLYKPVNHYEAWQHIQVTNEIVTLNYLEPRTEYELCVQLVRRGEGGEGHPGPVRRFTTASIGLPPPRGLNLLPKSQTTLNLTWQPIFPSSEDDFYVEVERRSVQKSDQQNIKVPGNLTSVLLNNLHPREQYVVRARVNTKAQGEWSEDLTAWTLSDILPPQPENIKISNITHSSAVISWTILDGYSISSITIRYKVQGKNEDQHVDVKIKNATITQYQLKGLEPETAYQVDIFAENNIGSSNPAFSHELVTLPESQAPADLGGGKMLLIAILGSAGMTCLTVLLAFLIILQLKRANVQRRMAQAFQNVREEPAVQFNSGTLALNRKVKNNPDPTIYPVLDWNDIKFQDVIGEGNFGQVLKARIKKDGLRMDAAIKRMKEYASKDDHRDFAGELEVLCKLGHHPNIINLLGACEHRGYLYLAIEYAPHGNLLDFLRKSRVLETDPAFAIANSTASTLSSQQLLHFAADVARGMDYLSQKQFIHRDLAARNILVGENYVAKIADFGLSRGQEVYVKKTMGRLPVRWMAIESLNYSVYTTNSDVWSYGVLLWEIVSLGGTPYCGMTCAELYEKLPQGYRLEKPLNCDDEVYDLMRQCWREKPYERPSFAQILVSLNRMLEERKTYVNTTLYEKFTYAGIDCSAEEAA

Row | SMILES | Kd
1 | Nc1nccc(-c2c(-c3ccc(F)cc3)ncn2C2CCN(CC(F)(F)F)CC2)n1 [4-{5-(4-Fluoro-phenyl)-3-[1-(2,2,2-trifluoro-ethyl)-piperidin-4-yl]-3H-imidazol-4-yl}-pyrimidin-2-ylamine] | 10 µM
2 | CC(=O)N1CCN(c2ccc(Nc3nccc(-c4sc(C(C)C)nc4-c4cccc(NS(=O)(=O)c5cccc(Cl)c5)c4)n3)cn2)CC1 [D3RKN_98] | 0.093 µM
3 | O=C(Nc1cccc(-c2nn3ncccc3c2-c2ccnc(Nc3ccccc3)n2)c1)c1c(F)cccc1F [D3RKN_56] | 2.5 µM
4 | CCc1nc(-c2cccc(N(C)S(=O)(=O)c3ccccc3)c2)c(-c2ccnc(Nc3ccc(N4CCN(C(C)=O)CC4)nc3)n2)s1 [D3RKN_120] | 3.2 µM
5 | O=C(Nc1cccc(-c2nn3ncccc3c2-c2ccnc(Nc3cccnc3)n2)c1)c1c(F)cccc1F | 10 µM
6 | CC(C)c1nc(-c2cccc(NS(=O)(=O)c3ccccc3)c2)c(-c2ccnc(Nc3ccc4c(c3)CN(C)CC4)n2)s1 [D3RKN_117] | 0.092 µM
7 | CC(C)c1nc(-c2ccc(F)c(NS(=O)(=O)c3c(F)cccc3F)c2)c(-c2ccnc(Nc3ccc(N4CCOCC4)nc3)n2)s1 | 0.024 µM
8 | O=C(Nc1cccc(-c2nn3ncccc3c2-c2ccnc(Nc3cccc(C(F)(F)F)c3)n2)c1)c1c(F)cccc1F [D3RKN_119] | 10 µM
9 | COc1cc(Nc2nccc(-c3c(-c4cccc(NC(=O)c5c(F)cccc5F)c4)nn4ncccc34)n2)cc(OC)c1OC [D3RKN_124] | 0.2 µM
10 | CC(C)c1nc(-c2cccc(NS(=O)(=O)c3c(F)cccc3F)c2)c(-c2ccnc(Nc3ccc(N4CCOCC4)nc3)n2)s1 [D3RKN_118] | 0.027 µM
11 | CC(C)c1nc(-c2cccc(NS(=O)(=O)c3c(F)cccc3F)c2F)c(-c2ccnc(Nc3ccc(N4CCOCC4)nc3)n2)s1 [D3RKN_29] | 0.0034 µM

Results, then the compound that gave them:

Row | Kd | SMILES
12 | 10 µM | CNc1nccc(-c2c(-c3ccc(F)cc3)ncn2CCCN2CCOCC2)n1
13 | 10 µM | Cc1cc(-c2c(-c3ccc(F)cc3)ncn2CCCN2CCOCC2)nc(N)n1
14 | 10 µM | CCNc1nccc(-c2c(-c3ccc(F)cc3)ncn2C2CCN(C)CC2)n1 [Ethyl-{4-[5-(4-fluoro-phenyl)-3-(1-methyl-piperidin-4-yl)-3H-imidazol-4-yl]-pyrimidin-2-yl}-amine]
15 | 10 µM | CCOC(=O)N1CCC(n2cnc(-c3ccc(F)cc3)c2-c2ccnc(N)n2)CC1 [4-[5-(2-Amino-pyrimidin-4-yl)-4-(4-fluoro-phenyl)-imidazol-1-yl]-piperidine-1-carboxylic acid ethyl ester]
16 | 10 µM | COc1nccc(-c2c(-c3ccc(F)cc3)ncn2CCCN2CCOCC2)n1 [4-{3-[4-(4-Fluoro-phenyl)-5-(2-methoxy-pyrimidin-4-yl)-imidazol-1-yl]-propyl}-morpholine]
17 | 10 µM | CNc1nccc(-c2c(-c3ccc(F)cc3)ncn2C2CCN(C)CC2)n1 [{4-[5-(4-Fluoro-phenyl)-3-(1-methyl-piperidin-4-yl)-3H-imidazol-4-yl]-pyrimidin-2-yl}-methyl-amine]
18 | 10 µM | CSc1nccc(-c2c(-c3ccc(F)cc3)ncn2CCCN2CCOCC2)n1
